Experimental data published in patent US7728012B2, “Carboxamide compounds and their use as calpain inhibitors” (Abbott GmbH & Co. KG, priority 2006, dated 2010).

How the values were obtained:
Type in all cases: biochemical
[1] = target: T1, recombinant human cathepsin S (Homo sapiens, UniProt P25774); assay: Cathepsin S kinetic fluorescence enzyme inhibition assay; conditions: selectivity ratio versus calpain I
T1 construct: purchased Calbiochem 219343; host or cells: E. coli
Outline: (§1)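 Inhibition is measured at room temperature in cysteine-containing MES buffer, pH 6.0, by continuous fluorescence at 460 nm. Cathepsin S (0.5 nM) uses 20 μM Z-Val-Val-Arg-AMC; L (1 nM) and B (0.25 nM) use Z-Phe-Arg-AMC at 2 and 100 μM respectively.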

[2] = target: T2, cathepsin K activated from recombinant human procathepsin K (Homo sapiens, UniProt P43235); assay: Cathepsin K kinetic fluorescence enzyme inhibition assay; conditions: selectivity ratio versus calpain I
T2 construct: purchased Calbiochem 342001; host or cells: E. coli
T2 sequence (P43235 115-329): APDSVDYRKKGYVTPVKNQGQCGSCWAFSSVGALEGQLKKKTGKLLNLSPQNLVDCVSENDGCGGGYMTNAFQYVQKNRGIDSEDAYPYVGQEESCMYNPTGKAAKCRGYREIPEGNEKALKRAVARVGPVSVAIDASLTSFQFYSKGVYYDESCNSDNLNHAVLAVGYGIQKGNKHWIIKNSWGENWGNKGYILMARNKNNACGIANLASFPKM
Experimental: The following solutions and buffers were employed: • HBS (for 40 ml): 800 μl M HEPES; 2.16 ml 100 mM KCl; 4.8 ml 1M NaCl; 3.59 ml 5% glucose; 60 μl μM MgSO4; 400 μl 100 mM Na pyruvate, 28.19 ml water; pH 7.2-7.5. • lysis buffer (for 20 ml): 400 μl M Tris pH 8.2; 2.74 ml 1M NaCl; 520 μl 0.5M EDTA; 2 ml 10% triton X-100; 0.8 ml (=1:25) CompletePlus (1 tablet/2 ml H2O); 200 μl 100 mM Pefabloc; 13.34 ml water, pH 8.2. • TBST (10×) (for 1 l): 100 mM Tris (12.1 g); 1.5M NaCl (87 g); 1% Tween 20 (10 g), adjusted to pH 8. I Enzyme Inhibition In Vitro: • Testing for blockade of the corresponding enzymic activities was carried out by means of kinetic fluorescence assays (excitation 390 nm, emission 460 nm). • Apparent Ki values were calculated from the experimentally determined IC50 values by the Cheng-Prussoff relation assuming a reversible competitive enzyme inhibition. The Km values of the substrates used under the assay conditions indicated above were: 90 μM (Z-Phe-Arg-AMC, cathepsin B), 10 μM (Z-Gly-Pro-Arg-AMC, cathepsin K), 2 μM (Z-Phe-Arg-AMC, cathepsin L), and 30 μM (Z-Val-Val-Arg-AMC, cathepsin S). • The indicated Ki values are averages of the inhibition constants calculated on the basis of 2 to 4 independent dose-effect plots.
The following assays were used: • 1. Calpain I: • 20 nM calpain-I—isolated from human erythrocytes (Calbiochem #208713), 100 μM Suc-Leu-Tyr-AMC (Bachem #1-1355) as substrate in buffer with 62 mM imidazole, 0.3 mM CaCl2, 0.10% CHAPS, 0.05% BSA, 1 mM DTT at pH 7.3 and room temperature. • 2. Cathepsin B: • 0.25 nM cathepsin B—isolated from human liver (Calbiochem #219362), 100 μM Z-Phe-Arg-AMC (Bachem #I-1160) as substrate 50 mM MES, 2 mM EDTA, 0.05% Brij 35, 2.5 mM L-cysteine, pH 6.0, room temperature. • 3. Cathepsin K: • 3 nM cathepsin K—activated from recombinant human procathepsin K from E. coli (Calbiochem #342001), 10 μM Z-Gly-Pro-Arg-AMC (Biomol #P-142) as substrate in 50 mM MES, 2 mM EDTA, 0.05% Brij 35, 2.5 mM L-cysteine, pH 6.0, room temperature. • 4. Cathepsin L: • 1 nM cathepsin L—isolated from human liver (Calbiochem #219402), 2 μM Z-Phe-Arg-AMC (Bachem #1-1160) as substrate in 50 mM MES, 2 mM EDTA, 0.05% Brij 35, 2.5 mM L-cysteine, pH 6.0, room temperature. • 5. Cathepsin S: • 0.5 nM recombinant human cathepsin S from E. coli (Calbiochem #219343), 20 μM Z-Val-Val-Arg-AMC (Bachem #1-1540) as substrate in 50 mM MES, 2 mM EDTA, 0.05% Brij 35, 2.5 mM L-cysteine, pH 6.0, room temperature. • The results of the in vitro determination are indicated in Table 1. The following abbreviations are used in Table 1: • The “Calpain activity” column, ++ stands for a calpain Ki (Ki(calpain)) of ≦40 nM and + means: 40 nM<Ki(Calpain)≦100 nM. • The “Sel. cat. B” column indicates the Ki(cathepsin B)/Ki(calpain) ratio. In this connection, ++ means a Ki(cathepsin B)/Ki(calpain) ratio of ≧30 and + means 10≦Ki(cathepsin B)/Ki(calpain)<30. • The “Sel. cat. K” column indicates the Ki(cathepsin K)/Ki(calpain) ratio. In this connection, ++ means a Ki(cathepsin K)/Ki(calpain) ratio of ≧30 and + means 10≦Ki(cathepsin K)/Ki(calpain)<30. • The “Sel. cat. L” column indicates the Ki(cathepsin L)/Ki(calpain) ratio. In this connection, ++ means a Ki(cathepsin L)/Ki(calpain) ratio of ≧50 and + means 30≦Ki(cathepsin L)/Ki(calpain)<50. • The “Sel. cat. S” column indicates the Ki(cathepsin S)/Ki(calpain) ratio. In this connection, ++ means a Ki(cathepsin S)/Ki(calpain) ratio of ≧100 and + means 50≦Ki(cathepsin S)/Ki(calpain)<100.

[3] = target: T3, cathepsin L isolated from human liver (Homo sapiens, UniProt P07711); assay: Cathepsin L kinetic fluorescence enzyme inhibition assay; conditions: selectivity ratio versus calpain I
T3 construct: cathepsin L—isolated from human liver; purchased Calbiochem 219402; host or cells: human liver (tissue isolate)
Outline: as §1

[4] = target: T4, calpain-I isolated from human erythrocytes (Homo sapiens, UniProt P07384); assay: Calpain I kinetic fluorescence enzyme inhibition assay; conditions: apparent Ki from IC50 by Cheng-Prussoff; average of 2 to 4 dose-effect plots
T4 construct: calpain-I—isolated from human erythrocytes; purchased Calbiochem 208713; host or cells: human erythrocytes (tissue isolate)
T4 sequence (P07384 1-714): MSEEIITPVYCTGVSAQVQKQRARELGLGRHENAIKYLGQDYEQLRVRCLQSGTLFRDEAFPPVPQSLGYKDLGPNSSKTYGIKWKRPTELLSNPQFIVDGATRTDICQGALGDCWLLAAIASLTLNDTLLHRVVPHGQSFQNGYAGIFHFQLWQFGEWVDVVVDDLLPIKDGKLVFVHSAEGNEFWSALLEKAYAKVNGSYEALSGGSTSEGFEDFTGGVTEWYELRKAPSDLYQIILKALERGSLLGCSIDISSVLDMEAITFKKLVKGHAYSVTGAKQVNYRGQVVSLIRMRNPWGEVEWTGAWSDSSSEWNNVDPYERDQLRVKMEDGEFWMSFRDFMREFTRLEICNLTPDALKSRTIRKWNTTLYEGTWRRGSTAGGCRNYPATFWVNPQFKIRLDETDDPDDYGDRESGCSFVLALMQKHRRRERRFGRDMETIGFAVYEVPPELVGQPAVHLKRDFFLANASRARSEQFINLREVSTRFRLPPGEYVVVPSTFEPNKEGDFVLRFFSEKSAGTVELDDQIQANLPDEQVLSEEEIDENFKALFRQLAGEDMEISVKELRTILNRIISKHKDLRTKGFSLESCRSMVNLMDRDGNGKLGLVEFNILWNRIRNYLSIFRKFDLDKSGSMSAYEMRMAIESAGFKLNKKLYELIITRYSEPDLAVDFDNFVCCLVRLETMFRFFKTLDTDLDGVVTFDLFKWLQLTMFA
T4 sequence (P04632 1-268 partner): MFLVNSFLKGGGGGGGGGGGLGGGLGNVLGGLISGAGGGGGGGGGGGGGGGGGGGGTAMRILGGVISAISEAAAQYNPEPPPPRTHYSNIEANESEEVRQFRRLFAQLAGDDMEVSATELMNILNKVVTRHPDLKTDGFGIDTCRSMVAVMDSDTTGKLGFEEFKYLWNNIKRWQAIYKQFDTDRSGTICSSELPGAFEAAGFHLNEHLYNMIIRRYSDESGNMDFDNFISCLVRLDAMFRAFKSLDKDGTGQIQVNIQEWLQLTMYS

[5] = target: T5, cathepsin B isolated from human liver (Homo sapiens, UniProt P07858); assay: Cathepsin B kinetic fluorescence enzyme inhibition assay; conditions: selectivity ratio versus calpain I
T5 construct: cathepsin B—isolated from human liver; purchased Calbiochem 219362; host or cells: human liver (tissue isolate)
Outline: as §1

T1 sequence (P25774 115-331): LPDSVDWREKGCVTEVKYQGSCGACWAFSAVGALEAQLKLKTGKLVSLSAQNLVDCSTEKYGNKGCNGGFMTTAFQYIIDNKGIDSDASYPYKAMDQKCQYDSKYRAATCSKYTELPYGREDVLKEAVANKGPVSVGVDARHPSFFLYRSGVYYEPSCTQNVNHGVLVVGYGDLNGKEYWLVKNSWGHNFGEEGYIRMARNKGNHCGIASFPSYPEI
T3 sequence (P07711 114-333): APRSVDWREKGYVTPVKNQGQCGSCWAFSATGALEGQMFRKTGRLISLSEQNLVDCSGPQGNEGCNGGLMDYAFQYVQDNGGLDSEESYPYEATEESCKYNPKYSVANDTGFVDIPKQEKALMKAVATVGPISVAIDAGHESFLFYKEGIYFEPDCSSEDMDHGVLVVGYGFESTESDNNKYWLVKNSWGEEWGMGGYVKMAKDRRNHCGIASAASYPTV

Row | Compound | Sel cat. S (Ki(cathepsin S)/Ki(calpain) ratio) [1] | Sel cat. K (Ki(cathepsin K)/Ki(calpain) ratio) [2] | Sel cat. L (Ki(cathepsin L)/Ki(calpain) ratio) [3] | Ki [4] [nM] | Sel cat. B (Ki(cathepsin B)/Ki(calpain) ratio) [5]
1 | NC(=O)C(=O)C(Cc1ccccc1)NC(=O)c1cccnc1-n1ccc(-c2ccc(N3CCCC3)cc2)n1 (stereo not drawn) [Example 69, N-(3-Amino-1-benzyl-2,3-dioxopropyl)-2-[3-(4-pyrrolidin-1-ylphenyl)-1H-pyrazol-1-yl]nicotinamide] | ++ (Ki(cathepsin S)/Ki(calpain) ratio of ≧100) | + (10≦Ki(cathepsin K)/Ki(calpain)<30) | ++ (Ki(cathepsin L)/Ki(calpain) ratio of ≧50) | 40 to 100 | + (10≦Ki(cathepsin B)/Ki(calpain)<30)
2 | COc1ccc(CC(NC(=O)c2cccnc2-n2ccc(-c3ccccc3)n2)C(=O)C(N)=O)cc1 (stereo not drawn) [Example 80, N-[3-Amino-1-(4-methoxybenzyl)-2,3-dioxopropyl]-2-(3-phenyl-1H-pyrazol-1-yl)nicotinamide] | ++ (Ki(cathepsin S)/Ki(calpain) ratio of ≧100) | + (10≦Ki(cathepsin K)/Ki(calpain)<30) | ++ (Ki(cathepsin L)/Ki(calpain) ratio of ≧50) | 40 to 100 | ++ (Ki(cathepsin B)/Ki(calpain) ratio of ≧30)
3 | Cl.NC(=O)C(=O)C(Cc1cccnc1)NC(=O)c1cccnc1-n1ccc(-c2ccccc2)n1 (stereo not drawn) [Example 88, N-[3-Amino-2,3-dioxo-1-(pyridin-3-ylmethyl)propyl]-2-(3-phenyl-1H-pyrazol-1-yl)pyridine-3-carboxamide hydrochloride] | ++ (Ki(cathepsin S)/Ki(calpain) ratio of ≧100) | ++ (Ki(cathepsin K)/Ki(calpain) ratio of ≧30) | ++ (Ki(cathepsin L)/Ki(calpain) ratio of ≧50) | 40 to 100 | + (10≦Ki(cathepsin B)/Ki(calpain)<30)
4 | NC(=O)C(=O)C(Cc1ccccc1)NC(=O)c1cccnc1-n1cc2c(n1)-c1ccccc1OC2 (stereo not drawn) [Example 100, N-[3-Amino-2,3-dioxo-1-(phenylmethyl)propyl]-2-chromeno[4,3-c]pyrazol-2(4H)-ylpyridine-3-carboxamide] | ++ (Ki(cathepsin S)/Ki(calpain) ratio of ≧100) | ++ (Ki(cathepsin K)/Ki(calpain) ratio of ≧30) | ++ (Ki(cathepsin L)/Ki(calpain) ratio of ≧50) | ≤ 40 | + (10≦Ki(cathepsin B)/Ki(calpain)<30)
5 | NC(=O)C(=O)C(Cc1ccccc1)NC(=O)c1cccnc1-n1ccc(-c2ccc(C(F)(F)F)cc2)n1 (stereo not drawn) [Example 60, N-(3-Amino-1-benzyl-2,3-dioxopropyl)-2-{3-[4-(trifluoromethyl)phenyl]-1H-pyrazol-1-yl}nicotinamide] | + (50≦Ki(cathepsin S)/Ki(calpain)<100) | + (10≦Ki(cathepsin K)/Ki(calpain)<30) | ++ (Ki(cathepsin L)/Ki(calpain) ratio of ≧50) | 40 to 100 | + (10≦Ki(cathepsin B)/Ki(calpain)<30)
6 | NC(=O)C(=O)C(Cc1ccc(OCc2ccccc2)cc1)NC(=O)c1cccnc1-n1ccc(-c2ccccc2)n1 (stereo not drawn) [Example 127, N-[3-Amino-2,3-dioxo-1-({4-[(phenylmethyl)oxy]phenyl}methyl)propyl]-2-(3-phenyl-1H-pyrazol-1-yl)pyridine-3-carboxamide] | ++ (Ki(cathepsin S)/Ki(calpain) ratio of ≧100) | ++ (Ki(cathepsin K)/Ki(calpain) ratio of ≧30) | ++ (Ki(cathepsin L)/Ki(calpain) ratio of ≧50) | ≤ 40 | ++ (Ki(cathepsin B)/Ki(calpain) ratio of ≧30)
